Results taken from US20220233743A1, “WOUND CLOSURE ENHANCEMENT METHODS AND MATERIALS VIA MANIPULATION OR AUGMENTATION OF LIPIN-1” (Board of Supervisors of Louisiana State University and …, priority 2019, published 2022).

Tested on: BMDMs
Test: OCR in response to AC with and without etomoxir, Seahorse
Type: cell-based, mouse
Conditions: for OCR in response to AC with pretreatment of etomoxir: 40 μM etomoxir 15 min, then AC 4:1
Description: Thymocytes (Jurkats) were subjected to UV light for 20 min in a 10-cm dish in sterile PBS. Cells were collected, and media was changed to D10 media followed by a 2-h incubation at 37° C. to allow for cells to become apoptotic. Cells were collected and centrifuged at 400×g for 5 min. Cells were resuspended in 2×10^−6 M PKH26 for 3 min. Staining was stopped by adding equivalent volumes of FBS.
BMDMs collected from lipin-1^mEnzyKO, lipin-1^mKO, and littermate control mice were seeded at a density of 150,000 cells per well on XF24 cell culture microplates and allowed to incubate for 4 h. Experiments were conducted in XF assay medium containing 25 mM glucose, 2 mM 1-glutamine, and 1 mM sodium pyruvate and analyzed using a Seahorse XFe 24 extracellular flux analyzer (Agilent Technologies). Where indicated, the following were injected: ATP-synthesis inhibitor oligomycin (Oligo; 1 μM), carbonyl cyanide 4-(trifluoromethoxy)phenylhydrazone (FCCP) (2 μM) to uncouple ATP synthesis, rotenone (100 nM) to block complex I, and antimycin A (1 μM) (Sigma-Aldrich) to block complex III. Oxygen consumption rate (OCR) was analyzed using Wave Desktop software (Agilent Technologies).
The inventors have shown that lipin-1 is required for increased OCR in response to free fatty acids, but the inventors wanted to know if lipin-1 regulates β-oxidation in response to AC during efferocytosis. BMDMs from WT, lipin-1^mEnzyKO, and lipin-1^mKO mice were either pretreated with or without etomoxir to prevent fatty acid transport into the mitochondria followed by the addition of AC to the macrophages at an AC/BMDM ratio of 4:1. AC were incubated with BMDMs for 30 min prior to the start of Seahorse analysis. […] Etomoxir treatment of unstimulated (no AC) WT, lipin-1 EKO, and lipin-1 KO macrophages allowed the inventors to determine basal lipid use.

## CCOC(=O)[C@@]1(CCCCCCOc2ccc(Cl)cc2)CO1 [etomoxir]
WT macrophages
  OCR in response to AC with pretreatment of etomoxir: significant reduction
lipin-1 EKO macrophages
  OCR in response to AC with pretreatment of etomoxir: significant reduction
lipin-1 KO macrophages
  OCR in response to AC with pretreatment of etomoxir: no significant difference in OCR
Unstimulated (no AC) WT macrophages
  OCR with etomoxir alone (basal lipid use): significant reduction in OCR
Unstimulated (no AC) lipin-1 EKO macrophages
  OCR with etomoxir alone (basal lipid use): significant reduction in OCR
Unstimulated (no AC) lipin-1 KO macrophages
  OCR with etomoxir alone (basal lipid use): significant reduction in OCR
